Molecules are shown by their SMILES.

This is an account of results in patent US8569281B2, “Compounds and their administration for treating a neurodegenerative disease as well as a method for identifying a compound capable of inhibiting a kinase, such as LRRK” (Medical Research Council Technology, priority 2010, dated 2013).

The target of the assay is LRRK2 (Homo sapiens (Human), UniProt Q5S007). Put plainly: In Vitro LRRK2 Assay (LabChip 3000, fluorescently-labeled peptide substrate). The note with it: ATP 130 μM, substrate 1 μM, 2 hours, ambient temperature; LRRK2 variant not given; read-out: Ki (μM), affinity values for LRRK2. It is filed as biochemical. As to the method:
This assay was used to determine a compound's potency in inhibiting activity of LRRK2 by determining, Kiapp, IC50, or percent inhibition values. In a polypropylene plate, LRRK2, fluorescently-labeled peptide substrate, ATP and test compound were incubated together. Using a LabChip 3000 (Caliper Life Sciences), after the reaction the substrate was separated by capillary electrophoresis into two populations: phosphorylated and unphosphorylated. The relative amounts of each were quantitated by fluorescence intensity. LRRK2 Ki was determined according to the equation: Y=V0*(1−((x+Ki*(1+S/Km)+Et)/(2*Et)−(((x+Ki*(1+S/Km)+Et)^2−(4*Et*x))^0.5)/(2*Et))).
Ki values in Table 4 and elsewhere herein are shown in μM.
Assay conditions and materials used were as follows:
Compound Plate Preparation:
For serial dilutions, 34.6 μl DMSO was added to columns 3-24.
Total and Blank Preparation:
In Complete Reaction Buffer, substrate was diluted to 4 μM. Equal volumes of Complete Reaction Buffer and 4 μM substrate were combined to obtain the blank. Equal volumes of Complete Reaction Buffer and 4 μM substrate were combined and to the combined solution was added 2× final LRRK2 concentration.
To a 50 μl polypropylene plate, 5 μl/well buffer/substrate was added by hand to Blank wells. A Biomek FX was used to start the kinase reaction (“PLK SAR 23 ATP”). The following were added to the appropriate wells: • 2 μl compound+23 μl ATP; • 5 μl/well compound/ATP in Assay Plate; • 5 μl/well kinase/substrate in Assay Plate;
The plate was incubated for 2 hours in the dark. Biomek FX was used to stop the kinase reaction (“PLK Stop”), and 10 μl/well Stop solution was added to the Assay Plate. Results were read on the LabChip 3000.
The LabChip 3000 was run using the job “LRRK2 IC50” with the following job settings: • Pressure: −1.4 psi • Downstream voltage: −500 V • Upstream voltage: −2350 V • Post sample buffer sip time: 75 seconds • Post dye buffer sip time: 75 seconds • Final delay time: 200 seconds Parkinson's Disease Animal Model

Chain of LRRK2 (Q5S007 whole entry G2019S): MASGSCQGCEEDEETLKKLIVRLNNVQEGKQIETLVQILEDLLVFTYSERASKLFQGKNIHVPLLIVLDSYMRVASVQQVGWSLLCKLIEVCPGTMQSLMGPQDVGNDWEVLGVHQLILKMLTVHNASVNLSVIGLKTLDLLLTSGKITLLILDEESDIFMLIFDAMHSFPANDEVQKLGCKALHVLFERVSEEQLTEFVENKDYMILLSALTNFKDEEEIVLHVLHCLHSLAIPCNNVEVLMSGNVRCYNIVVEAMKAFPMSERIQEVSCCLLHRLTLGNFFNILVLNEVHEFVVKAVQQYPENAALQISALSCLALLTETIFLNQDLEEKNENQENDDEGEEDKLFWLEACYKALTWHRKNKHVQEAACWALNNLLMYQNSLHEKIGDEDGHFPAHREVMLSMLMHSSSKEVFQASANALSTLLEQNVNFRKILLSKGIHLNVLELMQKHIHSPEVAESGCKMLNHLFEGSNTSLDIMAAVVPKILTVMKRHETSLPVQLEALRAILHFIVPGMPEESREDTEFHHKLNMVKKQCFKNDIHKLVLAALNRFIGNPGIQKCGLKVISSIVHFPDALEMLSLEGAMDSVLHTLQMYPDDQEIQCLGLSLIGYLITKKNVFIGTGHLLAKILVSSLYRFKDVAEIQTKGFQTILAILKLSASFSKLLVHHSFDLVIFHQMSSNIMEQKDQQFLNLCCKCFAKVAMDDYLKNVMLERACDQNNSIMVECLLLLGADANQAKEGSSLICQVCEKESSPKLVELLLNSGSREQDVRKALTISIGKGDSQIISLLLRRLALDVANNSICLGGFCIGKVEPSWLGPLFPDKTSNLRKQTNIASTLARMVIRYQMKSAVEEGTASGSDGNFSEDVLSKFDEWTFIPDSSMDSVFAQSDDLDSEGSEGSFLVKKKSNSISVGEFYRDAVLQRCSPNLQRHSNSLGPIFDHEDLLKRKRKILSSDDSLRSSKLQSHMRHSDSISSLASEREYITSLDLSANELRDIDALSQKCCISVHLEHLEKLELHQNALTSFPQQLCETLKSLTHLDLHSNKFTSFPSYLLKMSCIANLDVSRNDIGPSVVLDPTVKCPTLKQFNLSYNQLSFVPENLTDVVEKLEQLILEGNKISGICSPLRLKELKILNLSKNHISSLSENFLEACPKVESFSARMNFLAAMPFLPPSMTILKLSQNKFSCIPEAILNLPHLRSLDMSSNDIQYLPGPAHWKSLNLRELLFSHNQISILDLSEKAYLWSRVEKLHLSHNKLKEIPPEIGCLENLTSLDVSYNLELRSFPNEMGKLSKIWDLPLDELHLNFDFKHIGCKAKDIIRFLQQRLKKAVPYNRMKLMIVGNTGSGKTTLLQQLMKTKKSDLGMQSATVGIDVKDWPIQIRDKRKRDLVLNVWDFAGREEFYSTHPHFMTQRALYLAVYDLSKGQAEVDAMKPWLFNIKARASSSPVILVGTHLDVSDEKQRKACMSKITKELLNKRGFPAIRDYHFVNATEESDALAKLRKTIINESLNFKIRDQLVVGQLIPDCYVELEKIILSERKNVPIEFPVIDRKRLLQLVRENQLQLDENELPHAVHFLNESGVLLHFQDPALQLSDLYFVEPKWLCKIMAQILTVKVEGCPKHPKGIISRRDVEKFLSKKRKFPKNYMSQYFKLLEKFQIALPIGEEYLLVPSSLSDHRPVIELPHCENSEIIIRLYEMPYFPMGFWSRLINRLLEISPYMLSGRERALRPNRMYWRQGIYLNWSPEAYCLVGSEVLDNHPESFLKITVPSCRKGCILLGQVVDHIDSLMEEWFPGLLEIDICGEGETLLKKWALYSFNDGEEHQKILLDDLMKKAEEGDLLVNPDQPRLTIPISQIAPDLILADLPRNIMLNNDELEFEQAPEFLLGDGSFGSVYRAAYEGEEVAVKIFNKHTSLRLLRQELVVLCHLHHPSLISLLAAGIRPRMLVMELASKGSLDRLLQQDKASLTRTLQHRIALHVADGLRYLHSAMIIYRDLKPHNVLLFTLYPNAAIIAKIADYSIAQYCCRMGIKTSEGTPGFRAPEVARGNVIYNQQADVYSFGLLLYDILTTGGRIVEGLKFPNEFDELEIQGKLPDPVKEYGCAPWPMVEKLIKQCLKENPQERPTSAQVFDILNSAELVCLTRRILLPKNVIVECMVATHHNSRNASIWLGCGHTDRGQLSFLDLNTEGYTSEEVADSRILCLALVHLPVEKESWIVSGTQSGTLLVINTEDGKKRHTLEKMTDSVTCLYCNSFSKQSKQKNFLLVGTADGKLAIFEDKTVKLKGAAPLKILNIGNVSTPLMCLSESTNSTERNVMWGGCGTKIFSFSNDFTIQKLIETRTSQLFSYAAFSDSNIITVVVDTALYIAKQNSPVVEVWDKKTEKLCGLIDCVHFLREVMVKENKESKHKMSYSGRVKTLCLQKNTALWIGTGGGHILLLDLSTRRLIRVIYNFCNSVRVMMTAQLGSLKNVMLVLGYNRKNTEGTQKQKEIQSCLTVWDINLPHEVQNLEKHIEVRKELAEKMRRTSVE

Usually Ki stands for the dissociation constant of the complex between target and ligand, obtained from inhibition or displacement. For the molecule `c1cc2[nH]nc(-c3cnn(CC4CCOCC4)c3)c2c(OC2CCOCC2)n1` [Example 93, 3-(1-((Tetrahydro-2H-pyran-4-yl)methyl)-1H-pyrazol-4-yl)-4-(tetrahydro-2H-pyran-4-yloxy)-1H-pyrazolo[4,3-c]pyridine], the inhibition constant Ki is 0.011 µM.

In the case of `FC(F)(F)Cn1cc(-c2n[nH]c3ccnc(OC4CCOCC4)c23)cn1` [Example 96, 4-(tetrahydro-2H-pyran-4-yloxy)-3-(1-(2,2,2-trifluoroethyl)-1H-pyrazol-4-yl)-1H-pyrazolo[4,3-c]pyridine], the Ki stood at 0.006 µM.

Take `c1cc2[nH]nc(-c3cnn(C4CCOC4)c3)c2c(OC2CCOCC2)n1` (stereo not drawn) [Example 98, 4-(Tetrahydro-2H-pyran-4-yloxy)-3-(1-(tetrahydrofuran-3-yl)-1H-pyrazol-4-yl)-1H-pyrazolo[4,3-c]pyridine]: the Ki came to 0.005 µM.

Take `Cc1cc(-c2n[nH]c3ccnc(OC4CCOCC4)c23)cc(C)n1` [Example 100, 3-(2,6-Dimethylpyridin-4-yl)-4-(tetrahydro-2H-pyran-4-yloxy)-1H-pyrazolo[4,3-c]pyridine]: the Ki amounted to 0.005 µM.

As to `COc1cc(-c2n[nH]c3ccnc(OC4CCOCC4)c23)ccn1` [Example 101, 3-(2-Methoxypyridin-4-yl)-4-(tetrahydro-2H-pyran-4-yloxy)-1H-pyrazolo[4,3-c]pyridine], the Ki worked out at 0.022 µM.

For the molecule `Fc1c(-c2n[nH]c3ccnc(OC4CCOCC4)c23)ccnc1N1CCOCC1` [Example 103, 4-(3-Fluoro-4-(4-(tetrahydro-2H-pyran-4-yloxy)-1H-pyrazolo[4,3-c]pyridin-3-yl)pyridin-2-yl)morpholine], the Ki was 0.046 µM.

On to `COc1cc(-c2n[nH]c3ccnc(OC)c23)ccn1` [Example 106, 4-Methoxy-3-(2-methoxypyridin-4-yl)-1H-pyrazolo[4,3-c]pyridine], for which the Ki turned out to be 0.08 µM.

On to `COc1nccc2[nH]nc(-c3ccnc(N4CCOCC4)c3)c12` [Example 107, 4-(4-(4-Methoxy-1H-pyrazolo[4,3-c]pyridin-3-yl)pyridin-2-yl)morpholine], for which the Ki came to 0.029 µM.

Regarding `COc1nccc2[nH]nc(-c3ccnc(C(F)(F)F)c3)c12` [Example 108, 4-Methoxy-3-(2-(trifluoromethyl)pyridin-4-yl)-1H-pyrazolo[4,3-c]pyridine], the Ki was determined as 0.075 µM.

As to `COc1nccc2n[nH]c(-c3ccc(C(=O)N4CCOCC4)c(Cl)c3)c12` [Example 109, (2-Chloro-4-(4-methoxy-1H-pyrazolo[4,3-c]pyridin-3-yl)phenyl)(morpholino)methanone], the Ki stood at 0.209 µM.

For the molecule `c1cc(-c2n[nH]c3ccnc(OC4CCOCC4)c23)cc(N2CCCC2)n1` [Example 110, 3-(2-(Pyrrolidin-1-yl)pyridin-4-yl)-4-(tetrahydro-2H-pyran-4-yloxy)-1H-pyrazolo[4,3-c]pyridine], the Ki came to 0.003 µM.

On to `CC1CCCN(c2cc(-c3n[nH]c4ccnc(OC5CCOCC5)c34)ccn2)C1` (stereo not drawn) [Example 111, 3-(2-(3-Methylpiperidin-1-yl)pyridin-4-yl)-4-(tetrahydro-2H-pyran-4-yloxy)-1H-pyrazolo[4,3-c]pyridine], for which the Ki came to 0.006 µM.

Regarding `c1cc(-c2n[nH]c3ccnc(OC4CCOCC4)c23)cc(NC2COC2)n1` [Example 113, N-(Oxetan-3-yl)-4-(4-(tetrahydro-2H-pyran-4-yloxy)-1H-pyrazolo[4,3-c]pyridin-3-yl)pyridin-2-amine], the Ki is 0.136 µM.

Regarding `c1cc(-c2n[nH]c3ccnc(OC4CCOCC4)c23)cc(N2CCC2)n1` [Example 114, 3-(2-(Azetidin-1-yl)pyridin-4-yl)-4-(tetrahydro-2H-pyran-4-yloxy)-1H-pyrazolo[4,3-c]pyridine], the Ki stood at 0.009 µM.

As to `Cn1cc(-c2cc(-c3n[nH]c4ccnc(OC5CCOCC5)c34)ccn2)cn1` [Example 116, 3-(2-(1-Methyl-1H-pyrazol-4-yl)pyridin-4-yl)-4-(tetrahydro-2H-pyran-4-yloxy)-1H-pyrazolo[4,3-c]pyridine], the Ki turned out to be 0.01 µM.

For `COc1nccc2[nH]nc(-c3ccnc(N4[C@@H]5CC[C@H]4COC5)c3)c12` [Example 117, 8-(4-(4-Methoxy-1H-pyrazolo[4,3-c]pyridin-3-yl)pyridin-2-yl)-3-oxa-8-azabicyclo[3.2.1]octane], the Ki was found to be 0.08 µM.

For the molecule `COc1nccc2[nH]nc(-c3ccnc(N4C[C@@H]5C[C@H]4CO5)c3)c12` [Example 118, (1S,4S)-5-(4-(4-Methoxy-1H-pyrazolo[4,3-c]pyridin-3-yl)pyridin-2-yl)-2-oxa-5-azabicyclo[2.2.1]heptanes], the Ki came to 0.051 µM.

With `COc1nccc2[nH]nc(-c3ccnc(N4CCCC4)c3)c12` [Example 119, 4-Methoxy-3-(2-(pyrrolidin-1-yl)pyridin-4-yl)-1H-pyrazolo[4,3-c]pyridine], the Ki was 0.026 µM.

Turning to `COc1nccc2[nH]nc(-c3ccnc(-c4cnn(C)c4)c3)c12` [Example 121, 4-Methoxy-3-(2-(1-methyl-1H-pyrazol-4-yl)pyridin-4-yl)-1H-pyrazolo[4,3-c]pyridine], the Ki worked out at 0.042 µM.

For the molecule `c1cc2[nH]nc(-c3ccc4ncn(C5CCOC5)c4c3)c2c(OC2CCOCC2)n1` (stereo not drawn) [Example 128, 4-(Tetrahydro-2H-pyran-4-yloxy)-3-(1-(tetrahydrofuran-3-yl)-1H-benzo[d]imidazol-6-yl)-1H-pyrazolo[4,3-c]pyridine], the Ki came out at 0.034 µM.

Turning to `c1cc2[nH]nc(-c3ccc4c(c3)ncn4C3CCOC3)c2c(OC2CCOCC2)n1` (stereo not drawn) [Example 129, 4-(tetrahydro-2H-pyran-4-yloxy)-3-(1-(tetrahydrofuran-3-yl)-1H-benzo[d]imidazol-5-yl)-1H-pyrazolo[4,3-c]pyridine], the Ki was 0.01 µM.

For the molecule `Clc1ccccc1C#Cc1[nH]nc2ccnc(OC3CCOCC3)c12` [Example 132, 3-((2-Chlorophenyl)ethynyl)-4-(tetrahydro-2H-pyran-4-yloxy)-1H-pyrazolo[4,3-c]pyridine], the inhibition constant (Ki) turned out to be 0.005 µM.

Take `O=C(c1ccc(-c2[nH]nc3ccnc(OC4CCOCC4)c23)cc1)N1CCOCC1` [Example 133, Morpholino(4-(4-(tetrahydro-2H-pyran-4-yloxy)-1H-pyrazolo[4,3-c]pyridin-3-yl)phenyl)methanone]: the Ki came out at 0.076 µM.

As for `CN(C)C(=O)c1ccc(-c2[nH]nc3ccnc(OC4CCOCC4)c23)cc1F` [Example 135, 2-Fluoro-N,N-dimethyl-4-(4-(tetrahydro-2H-pyran-4-yloxy)-1H-pyrazolo[4,3-c]pyridin-3-yl)benzamide], the Ki is 0.104 µM.

For `c1cc2[nH]nc(-c3ccc4cn[nH]c4c3)c2c(OC2CCOCC2)n1` [Example 138, 3-(1H-Indazol-6-yl)-4-(tetrahydro-2H-pyran-4-yloxy)-1H-pyrazolo[4,3-c]pyridine], the Ki was determined as 0.013 µM.

On to `c1cc2[nH]nc(-c3ccc4nc[nH]c4c3)c2c(OC2CCOCC2)n1` [Example 139, 3-(1H-Benzo[d]imidazol-6-yl)-4-(tetrahydro-2H-pyran-4-yloxy)-1H-pyrazolo[4,3-c]pyridine], for which the Ki stood at 0.014 µM.

On to `Cn1ncc2cc(-c3n[nH]c4ccnc(OC5CCOCC5)c34)ccc21` [Example 140, 3-(1-Methyl-1H-indazol-5-yl)-4-(tetrahydro-2H-pyran-4-yloxy)-1H-pyrazolo[4,3-c]pyridine], for which the inhibition constant Ki amounted to 0.013 µM.

On to `CC(C)n1cc2ccc(-c3n[nH]c4ccnc(OC5CCOCC5)c34)cc2n1` [Example 143, 3-(2-isopropyl-2H-indazol-6-yl)-4-(tetrahydro-2H-pyran-4-yloxy)-1H-pyrazolo[4,3-c]pyridine], for which the Ki was 0.032 µM.

Turning to `Cn1cnc2cc(-c3n[nH]c4ccnc(OC5CCOCC5)c34)ccc21` [Example 145, 3-(1-methyl-1H-benzo[d]imidazol-5-yl)-4-(tetrahydro-2H-pyran-4-yloxy)-1H-pyrazolo[4,3-c]pyridine], the Ki was 0.036 µM.

For the molecule `c1cc2[nH]nc(-c3cnn([C@@H]4CCOC4)c3)c2c(OC2CCOCC2)n1` [Example 146, (R)-4-(Tetrahydro-2H-pyran-4-yloxy)-3-(1-(tetrahydrofuran-3-yl)-1H-pyrazol-4-yl)-1H-pyrazolo[4,3-c]pyridine], the Ki was found to be 0.005 µM.

With `c1cc2[nH]nc(-c3cnn([C@H]4CCOC4)c3)c2c(OC2CCOCC2)n1` [Example 147, (S)-4-(tetrahydro-2H-pyran-4-yloxy)-3-(1-(tetrahydrofuran-3-yl)-1H-pyrazol-4-yl)-1H-pyrazolo[4,3-c]pyridine], the Ki came out at 0.003 µM.

On to `Cc1[nH]nc2cc(C3CC3)nc(OC3CCCCC3)c12` [Example 148, 4-(Cyclohexyloxy)-6-cyclopropyl-3-methyl-1H-pyrazolo[4,3-c]pyridine], for which the inhibition constant Ki came to 0.271 µM.

Regarding `c1ccc2ncc(-c3n[nH]c4ccnc(OC5CCOCC5)c34)cc2c1` [Example 150, 3-(4-(Tetrahydro-2H-pyran-4-yloxy)-1H-pyrazolo[4,3-c]pyridin-3-yl)quinoline], the Ki amounted to 0.012 µM.
